# Reference: patent US8604044B2, “Quinazoline based EGFR inhibitors containing a zinc binding moiety” (Curis, Inc., priority 2006, dated 2013)
# Read-outs that look alike come from different tables or passages of the source.
# Key:
# [1] = both, Sprague Dawley, rat, in vivo, iv, 8 days
# [2] = Pharmacokinetic study of compound 12 formulation in rats; type: in vivo; conditions: 20 and 60 mg/kg iv, hydrochloride salt in 30% CAPTISOL, over thirty hours, FIG. 14
# Caki-1 = experiment: Cell proliferation assay (Table D); type: cell-based; conditions: Homo sapiens, Renal carcinoma, read-out: IC50 grading Caki-1
# [3] = Pharmacokinetic study of compound 12 formulation in mice; type: in vivo; conditions: hydrochloride salt in 30% CAPTISOL
# Protocol: Drug Preparation and Administration. […] Compound was administered via an intravenous (iv) infusion.
# Plasma samples were prepared by protein precipitation. An internal standard was added into plasma samples. […] The supernatant was then injected onto LC/MS/MS.
# Tissues were homogenized in 0.8 ml water. An internal standard was added into the tissue homogenates.
# human EGFR = biological target: T1, human EGFR (Homo sapiens, UniProt P00533); experiment: HTScan EGF Receptor Kinase Assay; type: biochemical
# T1 construct: human EGFR (His672-Ala1210); purchased Cell Signaling Technologies; host or cells: baculovirus expression system
# Protocol: The ability of compounds to inhibit receptor kinase (EGFR) activity was assayed using HTScan™ EGF Receptor Kinase Assay Kits (Cell Signaling Technologies, Danvers, Mass.). […] The protein was purified by one-step affinity chromatography using glutathione-agarose.
# Immediately transfer enzyme from −80° C. to ice. Allowed enzyme to thaw on ice. […] Returned immediately to ice. […] Incubated reaction plate at room temperature for 30 minutes. […] Added 100 μl/well primary antibody. Incubated at room temperature for 60 minutes. […] Added 100 μl/well diluted antibody. Incubated at room temperature for 30 minutes. […] Incubated at room temperature for 5 minutes.
# [4] = male, CD-1, mouse, in vivo, iv, 9 days
# [5] = test system: various cancer cell lines; experiment: Cell proliferation assay, various cancer cell lines (general statements); type: cell-based; conditions: Table D
# Protocol: Cancer cell lines were plated at 5,000 to 10,000 per well in 96-well flatted bottomed plates with various concentration of compounds. The cells were incubated with compounds for 72 hours in the presence of 0.5% of fetal bovine serum. Growth inhibition was accessed by adenosine triphosphate (ATP) content assay using Perkin Elmer ATPlite kit. ATPlite is an ATP monitoring system based on firefly luciferase. Briefly, 25 μl of mammalian cell lysis solution was added to 50 μl of phenol red-free culture medium per well to lyse the cells and stabilize the ATP. 25 μl of substrate solution was then added to the well and subsequently the luminescence was measured.
# [6] = Captisol formulation of compound 12: solubility, pH, dilution, stability
# [7] = male, CD-1, mouse, in vivo, ip, 7 days
# [8] = Pharmacokinetic study of compound 12 formulation in mice; type: in vivo; conditions: IP Dose 20 mg/kg, hydrochloride salt in 30% CAPTISOL
# [9] = test system: HDAC in MDA-MB-468 breast cancer cell line; experiment: Ac-H4 / Ac-H3 accumulation in MDA-MB-468 breast cancer cell line (FIG. 2); type: cell-based; conditions: MDA-MB-468, Ac-H4 and Ac-H3 accumulation
# [10] = test system: HCT-116 (colon) and SKBr3 (breast) cancer cells; experiment: Induction of apoptosis, Caspase 3&7 activity (FIG. 4); type: cell-based; conditions: 24 hours
# [11] = test system: EGFR in MDA-MB-468 breast cancer cell line; experiment: EGFR phosphorylation in MDA-MB-468 breast cancer cell line (FIG. 2); type: cell-based; conditions: MDA-MB-468, FIG. 2
# [12] = test system: HPAC pancreatic cancer cells; experiment: HPAC pancreatic cancer xenograft; type: in vivo, mice; conditions: 120 mg/kg in 30% CAPTISOL (iv/ip) daily vs 50 mg/kg erlotinib (po) or vehicle, FIG. 12A
# Protocol: (§1) 1-10×10^6 human cancer cells were implanted subcutaneously to the athymic (nu/nu) mice. When the tumors reached about 100 mm^3 in volume, the mice were treated with the compound by tail vein infusion. Routinely 5 groups (8-12 mice per group) are needed for a typical efficacy study, including one negative control, one positive control, and three testing groups for 3 dose levels of the same compound. Usually a 7-7-5 (on-off-on) regimen was used for one typical study. The tumor size was measured with an electronic caliper and body weight measured with a scale twice weekly. The tumors were removed from euthanized mice at the end of the study. One half of each tumor was frozen in dry ice and stored at −80° C. for PK or Western blot analysis. The other half was fixed with formalin. The fixed tissues were processed, embedded in paraffin and sectioned for immunohistochemistry staining.
# HDAC = HDAC fluorimetric assay (HDAC enzymatic activity, HeLa nuclear extract); type: biochemical; conditions: HeLa nuclear extract; read-out: HDAC IC50 grading
# Protocol: HDAC inhibitors were screened using an HDAC fluorimetric assay kit (AK-500, Biomol, Plymouth Meeting, Pa.).
# Each assay was setup as follows: Defrosted all kit components and kept on ice until use. […] Prepared dilutions of Trichostatin A (TSA, positive control) and tested compounds in assay buffer (5× of final concentration). Diluted Fluor de Lys™ Substrate in assay buffer to 100 uM (50 fold=2× final). Diluted Fluor de Lys™ developer concentrate 20-fold (e.g. 50 μl plus 950 μl Assay Buffer) in cold assay buffer. Second, diluted the 0.2 mM Trichostatin A 100-fold in the 1× Developer (e.g. 10 μl in 1 ml; final Trichostatin A concentration in the 1× Developer=2 μM; final concentration after addition to HDAC/Substrate reaction=1 μM). Added Assay buffer, diluted trichostatin A or test inhibitor to appropriate wells of the microtiter plate. Added diluted HeLa extract or other HDAC sample to all wells except for negative controls.
# HER2 = biological target: T2, HER2 (Homo sapiens, UniProt P04626); experiment: Radioisotope assay for HER2; type: biochemical; conditions: read-out: HER2/ErB2 IC50 grading
# T2 construct: human HER2 amino acids 679-1255; host or cells: baculovirus in Sf9 insect cells
# Protocol: Protocol for Radioisotope Assay for HER2
# 10 nM HER2 and 0.1 mg/ml polyEY were placed in the reaction buffer and 2 mM MnCl2, 1 μM ATP and 1% DMSO final were added. The reaction mixture was incubated for 2 hours at room temperature.
# MW=91.6 kDa. […] Enzyme is in 25 mM Tris-HCl, pH 8.0, 100 mM NaCl, 0.05% Tween-20, 50% glycerol, 10 mM reduced glutathione, and 3 mM DTT.
# A549 NSCLC Xenograft = experiment: A549 NSCLC xenograft model; type: in vivo, mice; conditions: FIG. 11B
# Protocol: as §1
# T2 sequence (P04626 679-1255): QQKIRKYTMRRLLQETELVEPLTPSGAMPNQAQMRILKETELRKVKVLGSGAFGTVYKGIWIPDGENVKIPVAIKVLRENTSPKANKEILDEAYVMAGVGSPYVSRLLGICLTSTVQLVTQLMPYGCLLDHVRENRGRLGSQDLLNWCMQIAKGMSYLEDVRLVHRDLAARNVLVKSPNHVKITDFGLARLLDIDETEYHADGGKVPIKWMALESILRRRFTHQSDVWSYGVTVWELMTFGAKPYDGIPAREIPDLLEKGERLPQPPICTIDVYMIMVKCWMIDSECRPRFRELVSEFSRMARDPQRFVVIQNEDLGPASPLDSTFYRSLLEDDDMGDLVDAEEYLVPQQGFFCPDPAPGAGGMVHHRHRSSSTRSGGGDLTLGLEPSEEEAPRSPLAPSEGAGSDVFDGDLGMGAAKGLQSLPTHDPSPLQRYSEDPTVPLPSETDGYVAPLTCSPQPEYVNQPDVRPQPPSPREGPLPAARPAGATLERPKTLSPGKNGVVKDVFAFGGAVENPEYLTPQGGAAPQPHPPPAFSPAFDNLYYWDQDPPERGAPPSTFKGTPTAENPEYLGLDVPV
# T1 sequence (P00533 672-1210): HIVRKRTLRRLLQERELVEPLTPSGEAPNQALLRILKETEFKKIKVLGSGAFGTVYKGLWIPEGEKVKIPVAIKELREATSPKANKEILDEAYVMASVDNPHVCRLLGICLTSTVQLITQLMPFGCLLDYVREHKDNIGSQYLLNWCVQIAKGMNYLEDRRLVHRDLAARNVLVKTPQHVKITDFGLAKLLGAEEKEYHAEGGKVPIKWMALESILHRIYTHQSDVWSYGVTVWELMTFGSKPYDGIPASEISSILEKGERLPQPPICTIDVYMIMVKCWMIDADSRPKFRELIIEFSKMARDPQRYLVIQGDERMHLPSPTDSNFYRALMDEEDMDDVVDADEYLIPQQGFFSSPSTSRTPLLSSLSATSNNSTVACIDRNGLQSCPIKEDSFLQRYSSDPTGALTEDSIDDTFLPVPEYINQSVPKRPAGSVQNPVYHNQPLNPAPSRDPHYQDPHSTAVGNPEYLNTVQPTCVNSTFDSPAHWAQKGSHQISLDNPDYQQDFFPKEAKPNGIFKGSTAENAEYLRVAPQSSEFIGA
smiles,measurement,setting,value
"C#Cc1cccc(Nc2ncnc3cc(OC)c(OCCCCCCC(=O)NO)cc23)c1 [Compound 12, 7-(4-(3-ethynylphenylamino)-7-methoxyquinazolin-6-yloxy)-N-hydroxyheptanamide]",dose not resulting in a significant change in body weight,[1],up to 200 mg/kg
same,plasma concentration versus dose,[2],proportional to the dose
same,IC50,Caki-1,≤ 50 nM
same,dose proportionality of concentration,"[3]; 20 and 60 mg/kg, iv and ip",dose proportional when administered intravenously but not intraperitoneally
same,T ½,"[3]; IP Dose 20 mg/kg, Lung",2.2 h
same,AUC,"[3]; IV Dose 20 mg/kg, Colon",5529 ng·h/mL
same,Cmax,"[3]; IV Dose 20 mg/kg, Colon",8.5 µM
same,T ½,"[3]; IV Dose 20 mg/kg, Colon",1.7 h
same,AUC,"[3]; IV Dose 20 mg/kg, Lung",1571 ng·h/mL
same,Cmax,"[3]; IV Dose 20 mg/kg, Lung",15.2 µM
same,T ½,"[3]; IV Dose 20 mg/kg, Lung",3.9 h
same,AUC,"[3]; IV Dose 20 mg/kg, Plasma",715 ng·h/mL
same,Cmax,"[3]; IV Dose 20 mg/kg, Plasma",27.7 µM
same,T ½,"[3]; IV Dose 20 mg/kg, Plasma",0.2 h
same,half-life in tissue compared with plasma,[3],greater than that in plasma
same,activity in EFGR enzyme assay compared with erlotinib,human EGFR; FIG. 1,more active
same,dose not resulting in a significant change in body weight,[4],up to 200 mg/kg
same,activity in various cancer cell lines compared with Erlotinib and SAHA,[5],more active than Erlotinib and SAHA
same,stability of solution,[6]; 25 mg/ml in 30% Captisol with tartaric acid,stable at room temperature
same,chemically stable and in solution without precipitation after dilution,"[6]; formulations from A (i), diluted with D5W 10-, 20-, and 50-fold",> 48 h
same,remained in solution without precipitation after dilution,"[6]; formulations from A (ii) citric acid, A (iii) hydrochloric acid, A (iiii) sodium salt, diluted with D5W 10-fold",> 12 h
same,chemical stability of lyophilisate,"[6]; lyophilisate from A (i) (tartaric acid, 25 mg/ml), −20° C., room temperature, and 40° C.",at least 2 weeks
same,storage of lyophilisate without decomposition,"[6]; lyophilisate from A (i), 4° C.",greater than 2 weeks
same,stability of lyophilisate,"[6]; lyophilisate from A (iii) (hydrochloric acid), −20° C.",at least two weeks
same,dose not resulting in a significant change in body weight,[7],up to 100 mg/kg
same,AUC,[8]; Lung,4433 ng·h/mL
same,Cmax,[8]; Lung,7.8 µM
same,AUC,[8]; Plasma,3751 ng·h/mL
same,Cmax,[8]; Plasma,8.5 µM
same,T ½,[8]; Plasma,0.26 h
same,histone H3/H4 acetylation accumulation compared with SAHA,[9],improvement
same,"cell apoptosis measured by increased Caspase 3&7 activity, times more",[10],4-11 times
same,inhibition of EGFR phosphorylation compared with Erlotinib,[11],improvement
same,attenuation of tumor growth,[12],greater attenuation of tumor growth than either erlotinib (po) or vehicle
"COc1cc2ncnc(NCc3ccc(F)c(Cl)c3)c2cc1OCCCCCCC(=O)NO [Compound 88, 7-(4-(3-chloro-4-fluorobenzylamino)-7-methoxyquinazolin-6-yloxy)-N-hydroxyheptanamide]",IC50,HDAC,< 100 nM
same,IC50,HER2,1000 to 10000 nM
same,melting point,,143.1 °C (dec.)
"O=C(CCCCCNCc1ccc(-c2ccc3ncnc(Nc4ccc(OCc5cccc(F)c5)c(Cl)c4)c3c2)o1)NO [Compound 177, 6-((5-(4-(3-chloro-4-(3-fluorobenzyloxy)phenylamino)quinazolin-6-yl)furan-2-yl)methylamino)-N-hydroxyhexanamide]",IC50,HDAC,100 to 1000 nM
same,IC50,human EGFR; read-out: EGFR IC50 grading,< 100 nM
same,IC50,HER2,< 100 nM
same,melting point,,121 °C
C#Cc1cccc(Nc2ncnc3cc(OCCOC)c(OCCOC)cc23)c1 [Erlotinib],effect on tumor size as compared to control,A549 NSCLC Xenograft,did not significantly affect tumor size
